Results taken from paper PMC5963102 (International Journal for Parasitology: Drugs and Drug …, 2017).
Where two headings read alike, the source gives them in different places.

Tests used:
[1] = molecular target: Asu-ACR-16 (nicotine sensitive nAChR) (Ascaris suum, UniProt F1KYJ9); assay: Two-electrode voltage-clamp on Asu-ACR-16 nAChR expressed in Xenopus laevis oocytes; assay type: cell-based
Experimental: (§1) All nAChR subunit and ancillary factor cRNAs from A. suum (Asu-acr-16 and Asu-ric-3), O. dentatum (Ode-unc-29, Ode-unc-38, […] and Ode-acr-8) and H. contortus (Hco-ric-3, Hco-unc-50 and Hco-unc-74) were prepared as previously described ([Abongwa et al., 2016a], [Buxton et al., 2014]). Briefly, defolliculated X. laevis oocytes were obtained from Ecocyte Bioscience (Austin, TX, USA). A Nanoject II microinjector (Drummond Scientific, Broomall, PA, USA) was used to inject cRNA into the cytoplasm at the animal pole region of the oocytes. Homomeric nAChRs comprising Asu-ACR-16 subunits were expressed by co-injecting 25 ng of Asu-acr-16 with 5 ng of Asu-ric-3 in a total volume of 50 nl in nuclease-free water. Heteromeric nAChRs from O. dentatum were expressed by co-injecting 1.8 ng of each subunit cRNA that make up the levamisole (Ode-unc-29, Ode-unc-38, […] and Ode-acr-8) or pyrantel/tribendimidine (Ode-unc-29, Ode-unc-38 and Ode-unc-63) receptor with 1.8 ng of each H. contortus ancillary factor (Hco-ric-3, Hco-unc-50 and Hco-unc-74) in a total volume of 36 nl in nuclease-free water. Injected oocytes were transferred to 96-well microtiter plates containing 200 μl incubation solution (100 mM NaCl, 2 mM KCl, 1.8 mM CaCl2·2H20, 1 mM MgCl2·6H20, 5 mM HEPES, 2.5 mM Na pyruvate, 100 U·ml^−1penicillin and 100 μg ml^−1 streptomycin, pH 7.5) and incubated at 19 °C for 5–7 days to allow for functional receptor expression. Incubation solution was changed daily.
(§2) Currents produced by activation of expressed Asu-ACR-16 and Ode levamisole sensitive and Ode pyrantel/tribendimidine sensitive receptors were recorded using the two-electrode voltage-clamp electrophysiology technique as previously described ([Abongwa et al., 2016a], [Buxton et al., 2014]). 100 μM BAPTA-AM was added to the oocyte incubation solution about 4 h prior to recording to prevent activation of endogenous calcium-activated chloride currents during recording. Recordings were made using an Axoclamp 2B amplifier (Molecular Devices, Sunnyvale, CA, USA) and data acquired on a computer with Clampex 10.3 (Molecular Devices, Sunnyvale, CA, USA). For all experiments, oocytes were voltage-clamped at −60 mV. Microelectrodes for impaling oocytes were pulled using a Flaming/Brown horizontal electrode puller (Model P-97; Sutter Instruments, Novato, CA, USA). The microelectrodes were filled with 3 M KCl and their tips carefully broken with a piece of tissue paper to attain a resistance of 2–5 MΩ in recording solution (100 mM NaCl, 2.5 mM KCl, 1 mM CaCl2·2H2O and 5 mM HEPES, pH 7.3).
(§3) Electrophysiology data was measured with Clampfit 10.3 (Molecular devices, Sunnyvale CA, USA) and analyzed with GraphPad Prism 5.0 (GraphPad Software Inc., La Jolla, CA, USA). […] Concentration-response relationships (for each oocyte) were analyzed by fitting log concentration-response data points with the Hill equation as previously described ([Boulin et al., 2008]). % inhibition for monepantel was calculated using 100-Rmax for each experiment and plotted as mean ± s.e.m. on the concentration-inhibition plots. IC50's were calculated as previously described ([Zheng et al., 2016]). We used one-way ANOVA to test for statistical differences among treatment groups. If the group means were statistically different (p < .05), we used the Tukey multiple comparison test to determine significant differences between groups.

[2] = molecular target: Ode pyrantel/tribendimidine nAChR (Ode-UNC-29:Ode-UNC-38:Ode-UNC-63) (Oesophagostomum dentatum, UniProt E5KIX9+V5J2B2+V5J336); assay: Two-electrode voltage-clamp on Ode pyrantel/tribendimidine receptors expressed in Xenopus laevis oocytes; assay type: cell-based
Experimental: as §1, §2, §3

[3] = molecular target: Ode levamisole nAChR (Ode-UNC-29:Ode-UNC-38:Ode-UNC-63:Ode-ACR-8) (Oesophagostomum dentatum, UniProt E5KIX9+L7MMZ7+V5J2B2+V5J336); assay: Two-electrode voltage-clamp on Ode levamisole receptors expressed in Xenopus laevis oocytes; assay type: cell-based
Experimental: as §1
as §2, with “Microelectrodes for impaling oocytes were pulled using a Flaming/Brown horizontal electrode puller (Model P-97; Sutter Instruments, Novato, CA, USA). The microelectrodes were filled with 3 M KCl and their tips carefully broken with a piece of tissue paper to attain a resistance of 2–5 MΩ in recording solution (100 mM NaCl, 2.5 mM KCl, 1 mM CaCl2·2H2O and 5 mM HEPES, pH 7.3).” left out
Electrophysiology data was measured with Clampfit 10.3 (Molecular devices, Sunnyvale CA, USA) and analyzed with GraphPad Prism 5.0 (GraphPad Software Inc., La Jolla, CA, USA). […] Concentration-response relationships (for each oocyte) were analyzed by fitting log concentration-response data points with the Hill equation as previously described ([Boulin et al., 2008]). % inhibition for monepantel was calculated using 100-Rmax for each experiment and plotted as mean ± s.e.m. on the concentration-inhibition plots. IC50's were calculated as previously described ([Zheng et al., 2016]). […]

[4] = system: A. suum muscle flaps; assay: Muscle contraction assay, isometric contractions of Ascaris body muscle flaps; assay type: cell-based, Ascaris suum; details: for EC50: Ascaris suum
Experimental: Adult A. suum were collected from the IMES slaughterhouse, Belgrade, Serbia and maintained in Locke's solution (155 mM NaCl, 5 mM KCl, 2 mM CaCl2, 1.5 mM NaHCO3 and 5 mM glucose) at 32 °C for 5 days. Locke's solution was changed daily. Ascaris muscle flaps for contraction studies were prepared as described in [Trailović et al. (2015)]. Briefly, 1 cm muscle body flaps were prepared by dissecting the anterior 2–3 cm part of the worm. A force transducer in an experimental bath containing 20 ml APF (23 mM NaCl, 110 mM Na acetate, 24 mM KCl, 6 mM CaCl2, 5 mM MgCl2, 11 mM glucose, 5 mM HEPES, pH 7.6) and 0.1% DMSO and bubbled with nitrogen was attached to each muscle flap. The bath was maintained at 37 °C during which isometric contractions of each flap were monitored on a PC computer using a BioSmart interface and eLAB software (EIUnit, Belgrade). The system allows real time recording, display and analysis of experimental data.
Isometric contractions of each Ascaris muscle flap in the absence and presence of monepantel were monitored on a PC computer using eLAB software (EIUnit, Belgrade). GraphPad Prism 5.0 (GraphPad Software Inc., La Jolla, CA, USA) was used to analyze the data. […] Single concentration-response relationships were fitted to the data as described in Section 2.5.1.

[5] = system: A. suum; set-up: method as in Tritten et al., 2011; details: 600 mg/kg; ref Tritten et al., 2011; cited from earlier work
[6] = system: H. contortus MPTL-1 receptors; set-up: method as in Baur et al., 2015; details: ref Baur et al., 2015, cited from earlier work
[7] = system: C. elegans ACR-20 receptors; set-up: method as in Baur et al., 2015; details: ref Baur et al., 2015, cited from earlier work
[8] = read-out: acetylcholine Rmax (mean ± s.e.m.)

Sequence of Asu-ACR-16 (nicotine sensitive nAChR) (F1KYJ9 entry or part of it): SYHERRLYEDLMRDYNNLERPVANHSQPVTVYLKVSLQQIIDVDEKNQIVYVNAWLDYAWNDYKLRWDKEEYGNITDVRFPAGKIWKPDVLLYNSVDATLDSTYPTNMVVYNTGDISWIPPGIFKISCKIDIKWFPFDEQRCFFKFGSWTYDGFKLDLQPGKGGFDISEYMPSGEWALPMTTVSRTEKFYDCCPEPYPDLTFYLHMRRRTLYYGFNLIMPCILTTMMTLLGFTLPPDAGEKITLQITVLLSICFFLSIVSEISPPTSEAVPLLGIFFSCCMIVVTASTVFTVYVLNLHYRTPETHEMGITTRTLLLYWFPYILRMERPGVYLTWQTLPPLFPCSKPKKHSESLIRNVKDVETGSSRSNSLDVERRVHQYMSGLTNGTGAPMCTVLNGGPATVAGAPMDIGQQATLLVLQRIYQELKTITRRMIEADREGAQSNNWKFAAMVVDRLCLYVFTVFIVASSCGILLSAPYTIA
Sequence of Ode levamisole nAChR (Ode-UNC-29:Ode-UNC-38:Ode-UNC-63:Ode-ACR-8) (L7MMZ7 entry or part of it): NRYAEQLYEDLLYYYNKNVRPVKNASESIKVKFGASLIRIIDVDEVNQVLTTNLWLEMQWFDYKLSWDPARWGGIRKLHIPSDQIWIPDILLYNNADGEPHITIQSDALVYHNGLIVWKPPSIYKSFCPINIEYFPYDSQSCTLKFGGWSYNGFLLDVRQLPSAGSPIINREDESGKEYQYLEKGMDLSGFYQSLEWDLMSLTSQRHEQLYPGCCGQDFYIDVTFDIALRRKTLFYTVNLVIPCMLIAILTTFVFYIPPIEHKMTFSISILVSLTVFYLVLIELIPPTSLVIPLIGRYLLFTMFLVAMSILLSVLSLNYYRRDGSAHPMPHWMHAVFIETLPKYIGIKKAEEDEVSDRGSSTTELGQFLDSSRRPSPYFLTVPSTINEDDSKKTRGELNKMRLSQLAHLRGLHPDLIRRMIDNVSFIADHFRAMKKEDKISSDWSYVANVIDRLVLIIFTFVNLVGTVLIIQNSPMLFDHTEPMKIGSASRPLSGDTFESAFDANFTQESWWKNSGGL
Sequence of Ode levamisole nAChR (Ode-UNC-29:Ode-UNC-38:Ode-UNC-63:Ode-ACR-8) (V5J2B2 entry or part of it): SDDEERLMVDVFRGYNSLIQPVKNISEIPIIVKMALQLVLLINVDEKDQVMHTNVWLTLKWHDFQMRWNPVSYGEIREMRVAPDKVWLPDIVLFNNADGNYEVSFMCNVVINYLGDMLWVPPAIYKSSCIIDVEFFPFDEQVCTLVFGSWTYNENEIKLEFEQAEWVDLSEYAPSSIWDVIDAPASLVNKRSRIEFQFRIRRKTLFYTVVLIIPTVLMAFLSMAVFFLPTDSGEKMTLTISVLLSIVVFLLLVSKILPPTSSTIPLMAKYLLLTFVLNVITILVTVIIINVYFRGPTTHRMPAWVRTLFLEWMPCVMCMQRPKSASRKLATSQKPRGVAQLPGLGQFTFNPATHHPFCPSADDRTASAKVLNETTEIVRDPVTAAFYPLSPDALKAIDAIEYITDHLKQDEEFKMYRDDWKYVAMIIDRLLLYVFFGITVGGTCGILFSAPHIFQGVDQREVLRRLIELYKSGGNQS
Sequence of Ode levamisole nAChR (Ode-UNC-29:Ode-UNC-38:Ode-UNC-63:Ode-ACR-8) (E5KIX9 entry or part of it): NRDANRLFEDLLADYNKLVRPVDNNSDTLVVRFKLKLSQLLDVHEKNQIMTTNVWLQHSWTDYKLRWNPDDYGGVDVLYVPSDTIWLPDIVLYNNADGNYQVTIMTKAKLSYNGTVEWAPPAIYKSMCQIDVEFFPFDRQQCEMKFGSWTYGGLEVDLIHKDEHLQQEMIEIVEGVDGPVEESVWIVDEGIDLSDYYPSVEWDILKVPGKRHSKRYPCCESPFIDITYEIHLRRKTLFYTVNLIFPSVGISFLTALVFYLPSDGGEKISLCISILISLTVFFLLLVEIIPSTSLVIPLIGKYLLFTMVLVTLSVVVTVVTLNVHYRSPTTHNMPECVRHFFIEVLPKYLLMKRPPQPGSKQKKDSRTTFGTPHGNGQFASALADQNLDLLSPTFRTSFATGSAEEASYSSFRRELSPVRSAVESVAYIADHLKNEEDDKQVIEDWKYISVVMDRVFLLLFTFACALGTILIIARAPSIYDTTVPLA
Sequence of Ode levamisole nAChR (Ode-UNC-29:Ode-UNC-38:Ode-UNC-63:Ode-ACR-8) (V5J336 entry or part of it): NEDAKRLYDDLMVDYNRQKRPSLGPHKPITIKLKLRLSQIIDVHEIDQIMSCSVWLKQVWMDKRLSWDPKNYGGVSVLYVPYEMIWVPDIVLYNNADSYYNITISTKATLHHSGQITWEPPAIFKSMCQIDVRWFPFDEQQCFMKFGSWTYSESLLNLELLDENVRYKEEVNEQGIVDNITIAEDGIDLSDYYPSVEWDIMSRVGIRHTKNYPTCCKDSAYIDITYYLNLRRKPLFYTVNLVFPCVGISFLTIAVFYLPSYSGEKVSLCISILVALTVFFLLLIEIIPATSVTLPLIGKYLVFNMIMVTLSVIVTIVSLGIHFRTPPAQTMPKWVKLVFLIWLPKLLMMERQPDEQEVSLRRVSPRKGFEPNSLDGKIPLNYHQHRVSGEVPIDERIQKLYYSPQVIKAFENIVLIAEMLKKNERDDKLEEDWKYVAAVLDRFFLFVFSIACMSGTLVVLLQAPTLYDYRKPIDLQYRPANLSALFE
Sequence of Ode pyrantel/tribendimidine nAChR (Ode-UNC-29:Ode-UNC-38:Ode-UNC-63) (V5J336 entry or part of it): as above
Sequence of Ode pyrantel/tribendimidine nAChR (Ode-UNC-29:Ode-UNC-38:Ode-UNC-63) (V5J2B2 entry or part of it): as the sequence (V5J2B2 entry or part of it) above
Sequence of Ode pyrantel/tribendimidine nAChR (Ode-UNC-29:Ode-UNC-38:Ode-UNC-63) (E5KIX9 entry or part of it): as the sequence (E5KIX9 entry or part of it) above

C[C@](C#N)(COc1cc(C#N)ccc1C(F)(F)F)NC(=O)c1ccc(SC(F)(F)F)cc1 [monepantel, N-[(2S)-2-cyano-1-[5-cyano-2-(trifluoromethyl)phenoxy]propan-2-yl]-4-(trifluoromethylsulfanyl)benzamide]
IC50 [1]: 0.2 µM
type of antagonism of acetylcholine responses ([1]; co-applied with acetylcholine): non-competitive antagonism
maximum inhibition ([1]; component with IC50 1.6 nM): 40%
maximum inhibition ([1]; component with IC50 0.2 μM): ~100%
agonist action (receptor activation) ([1]; monepantel applied on its own): did not cause activation
IC50 [2]: 1.7 ± 0.7 µM
type of antagonism of acetylcholine responses ([2]; co-applied with acetylcholine): non-competitive antagonism
agonist action (receptor activation) ([2]; monepantel alone): did not activate
IC50 [3]: 5 ± 0.5 µM
type of antagonism of acetylcholine responses ([3]; co-applied with acetylcholine): non-competitive antagonist
agonist action (receptor activation) ([3]; monepantel applied alone): failed to activate
type of antagonism of acetylcholine induced contractions ([4]; 1-30 μM monepantel): mixture of competitive and non-competitive antagonism
acetylcholine Rmax (mean ± s.e.m.), contraction ([4]; in the presence of 3 μM monepantel): 1.1 ± 0.3 g
acetylcholine Rmax (mean ± s.e.m.), contraction ([4]; in the presence of 10 μM monepantel): 1.1 ± 0.5 g
acetylcholine Rmax (mean ± s.e.m.), contraction ([4]; in the presence of 30 μM monepantel): 0.5 ± 0.4 g
effect on baseline tension ([4]; monepantel on its own): did not produce any significant change in baseline tension
in vivo activity against A. suum [5]: lack in vivo activity
concentration at which it acts as direct agonist ([6]; high concentrations): > 0.1 µM
concentration at which it acts as positive allosteric modulator ([6]; low concentrations): < 1 nM
concentration at which it acts as direct agonist ([7]; high concentrations): > 0.1 µM
concentration at which it acts as positive allosteric modulator ([7]; low concentrations): < 1 nM

CC(=O)OCC[N+](C)(C)C [Acetylcholine]
Emax [1, 8]: 97.5 ± 1.2%
EC50 [2]: 11.3 ± 1.3 µM
Emax [2, 8]: 118 ± 4.5%
Emax [3, 8]: 108.8 ± 1%
EC50 ([4]; read-out: acetylcholine EC50 (contraction)): 5.3 µM
EC50 ([4]; read-out: acetylcholine log EC50 ± s.e.m. (contraction) (converted)): 5.01 µM
acetylcholine Rmax (mean ± s.e.m.), contraction ([4]; acetylcholine alone (control)): 1.7 ± 0.4 g
